The text below walks through data of BindingDB's records for doi:10.1021/cb400100g (University of Massachusetts Medical School, 2013).

This experiment concerns the target Genome polyprotein (Hepatitis C virus genotype 1a (isolate H77), UniProt P27958). Briefly: Enzyme Inhibition Assay. The procedure: NS3/4A protease was preincubated with increasing concentration of drugs in protease reaction buffer for 1 hour. Inhibition assays were performed in a reaction volume of 60μL. The reaction was initiated by the rapid injection of 5μL of HCV NS3/4A protease substrate to a final concentration of 200nM.

Genome polyprotein, sequence (P27958 1027-1657 limits assumed): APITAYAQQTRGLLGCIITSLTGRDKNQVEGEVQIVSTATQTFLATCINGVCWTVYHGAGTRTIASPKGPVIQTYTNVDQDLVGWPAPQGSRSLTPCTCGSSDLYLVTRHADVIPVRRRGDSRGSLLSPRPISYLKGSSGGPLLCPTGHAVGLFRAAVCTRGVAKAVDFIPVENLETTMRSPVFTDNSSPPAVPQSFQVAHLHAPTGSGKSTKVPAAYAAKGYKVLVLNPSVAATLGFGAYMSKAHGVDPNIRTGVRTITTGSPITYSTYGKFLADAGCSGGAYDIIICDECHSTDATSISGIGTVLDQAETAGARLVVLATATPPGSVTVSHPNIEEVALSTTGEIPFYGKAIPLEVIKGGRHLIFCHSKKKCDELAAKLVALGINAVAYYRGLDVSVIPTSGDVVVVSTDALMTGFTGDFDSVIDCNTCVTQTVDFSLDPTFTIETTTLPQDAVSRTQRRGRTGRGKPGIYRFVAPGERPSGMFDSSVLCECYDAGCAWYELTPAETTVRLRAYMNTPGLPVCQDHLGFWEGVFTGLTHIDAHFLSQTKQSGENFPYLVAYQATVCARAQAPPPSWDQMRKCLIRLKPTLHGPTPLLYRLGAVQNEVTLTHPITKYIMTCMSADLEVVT
Genome polyprotein, sequence (P27958 1658-1711 limits assumed): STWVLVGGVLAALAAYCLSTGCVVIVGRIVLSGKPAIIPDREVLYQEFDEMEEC

As a reminder, the Ki is a measure of affinity in units of concentration, obtained from inhibition or displacement. A high value points to a looser hold on the target. For `CC[C@@H]1C[C@]1(NC(=O)[C@@H]1C[C@@H]2CN1C(=O)[C@H](C(C)(C)C)NC(=O)OCC(C)(C)CCCCc1cccc3c1CN(C3)C(=O)O2)C(=O)NS(=O)(=O)C1CC1` [Vaniprevir], the Ki worked out at 0.46 nM.
For the compound `C=C[C@@H]1C[C@]1(NC(=O)C1C[C@@H]2CN1C(=O)[C@H](C(C)(C)C)NC(=O)OCC(C)(C)CCCCc1cccc3c1CN(C3)C(=O)O2)C(=O)NS(=O)(=O)C1CC1` (stereo partly drawn) [Dan-mcP2P4], the affinity corresponds to a Ki of 0.22 nM.
`C=C[C@@H]1C[C@]1(NC(=O)[C@@H]1CC2CN1C(=O)[C@H](C(C)(C)C)NC(=O)O[C@@H]1C[C@H]1CCCCCc1nc3ccc(OC)cc3nc1O2)C(=O)NS(=O)(=O)C1CC1` (stereo partly drawn) [MK-5172] registered a Ki of 0.06 nM.
